Experimental data published in patent publication US20060134102A1, “Lymphotoxin beta receptor agents in combination with chemotherapeutic agents” (Biogen Idec MA Inc., priority 2002, published 2006).

System: KM-20L2 human colorectal adenocarcinoma
Assay: KM-20L2 xenograft model: growth of established KM-20L2 human colorectal tumors in athymic nude mice (tumor volume/weight, % T/C, Fa, Combination Index)
Format: in vivo

huCBE11: humanized anti-LT-β-R agonist antibody (LTβ receptor-activating mAb), described in WO 02/30986
Median Effect Dose (Combined (1:0.63 huCBE11:Camptosar), dose of the labelled agent in the combination, Day 13): 10.7 mg/kg
Median Effect Dose (Combined (1:0.63 huCBE11:Camptosar), dose of the labelled agent in the combination, Day 16): 2.6 mg/kg
Median Effect Dose (Combined (1:0.63 huCBE11:Camptosar), dose of the labelled agent in the combination, Day 20): 1.0 mg/kg
Median Effect Dose (Combined (1:0.63 huCBE11:Camptosar), dose of the labelled agent in the combination, Day 23): 1.1 mg/kg
Median Effect Dose (Combined (1:0.63 huCBE11:Camptosar), dose of the labelled agent in the combination, Day 27): 1.5 mg/kg
Median Effect Dose (Combined (1:0.63 huCBE11:Camptosar), dose of the labelled agent in the combination, Day 30): 1.8 mg/kg
Median Effect Dose (Combined (1:0.63 huCBE11:Camptosar), dose of the labelled agent in the combination, Day 34): 1.8 mg/kg
Median Effect Dose (Combined (1:0.63 huCBE11:Camptosar), dose of the labelled agent in the combination, Day 37): 1.6 mg/kg
Median Effect Dose (Combined (1:0.63 huCBE11:Camptosar), dose of the labelled agent in the combination, Day 41): 1.5 mg/kg
Median Effect Dose (Given Separately, Day 13): 174 mg/kg
Median Effect Dose (Given Separately, Day 16): 981 mg/kg
Median Effect Dose (Given Separately, Day 20): 32.7 mg/kg
Median Effect Dose (Given Separately, Day 23): 9.0 mg/kg
Median Effect Dose (Given Separately, Day 27): 2.1 mg/kg
Median Effect Dose (Given Separately, Day 30): 3.8 mg/kg
Median Effect Dose (Given Separately, Day 34): 3.6 mg/kg
Median Effect Dose (Given Separately, Day 37): 6.6 mg/kg
Median Effect Dose (Given Separately, Day 41): 3.0 mg/kg
Median Effect Dose (Given Separately; Day 16): 2077 mg/kg
Median Effect Dose (Given Separately; Day 20): 9.5 mg/kg
Median Effect Dose (Given Separately; Day 23): 4.8 mg/kg
Median Effect Dose (Given Separately; Day 27): 3.3 mg/kg
Median Effect Dose (Given Separately; Day 30): 3.8 mg/kg
Median Effect Dose (Given Separately; Day 34): 3.2 mg/kg
Median Effect Dose (Given Separately; Day 37): 2.7 mg/kg
Median Effect Dose (Given Separately; Day 41): 2.4 mg/kg
Median Effect Dose (Given Separately; Day 43): 2.4 mg/kg
Median Effect Dose (dose of the labelled agent when huCBE11 and Gemcitabine Combined (4:5); Day 16): 3.6 mg/kg
Median Effect Dose (dose of the labelled agent when huCBE11 and Gemcitabine Combined (4:5); Day 20): 1.3 mg/kg
Median Effect Dose (dose of the labelled agent when huCBE11 and Gemcitabine Combined (4:5); Day 23): 0.6 mg/kg
Median Effect Dose (dose of the labelled agent when huCBE11 and Gemcitabine Combined (4:5); Day 27): 0.7 mg/kg
Median Effect Dose (dose of the labelled agent when huCBE11 and Gemcitabine Combined (4:5); Day 30): 0.6 mg/kg
Median Effect Dose (dose of the labelled agent when huCBE11 and Gemcitabine Combined (4:5); Day 34): 0.6 mg/kg
Median Effect Dose (dose of the labelled agent when huCBE11 and Gemcitabine Combined (4:5); Day 37): 0.4 mg/kg
Median Effect Dose (dose of the labelled agent when huCBE11 and Gemcitabine Combined (4:5); Day 41): 0.6 mg/kg
Median Effect Dose (dose of the labelled agent when huCBE11 and Gemcitabine Combined (4:5); Day 43): 0.4 mg/kg
% T/C (hCBE11 2 mg/kg; Days 41 to 55): ≤ 42%
% T/C (hCBE11 4 mg/kg; Days 50 and 55): ≤ 42%
Mean Fraction Affected (Fa) (huCBE11 0.2 mg/kg alone, Day 9): −0.026
Mean Fraction Affected (Fa) (huCBE11 0.2 mg/kg alone, Day 13): 0.003
Mean Fraction Affected (Fa) (huCBE11 0.2 mg/kg alone, Day 16): 0.125
Mean Fraction Affected (Fa) (huCBE11 0.2 mg/kg alone, Day 20): 0.249
Mean Fraction Affected (Fa) (huCBE11 0.2 mg/kg alone, Day 23): 0.294
Mean Fraction Affected (Fa) (huCBE11 0.2 mg/kg alone, Day 27): 0.377
Mean Fraction Affected (Fa) (huCBE11 0.2 mg/kg alone, Day 30): 0.369
Mean Fraction Affected (Fa) (huCBE11 0.2 mg/kg alone, Day 34): 0.345
Mean Fraction Affected (Fa) (huCBE11 0.2 mg/kg alone, Day 37): 0.372
Mean Fraction Affected (Fa) (huCBE11 0.2 mg/kg alone, Day 41): 0.381
Mean Fraction Affected (Fa) (huCBE11 0.2 mg/kg; Day 9): 0.063
Mean Fraction Affected/Fraction Unaffected (Fa/Fu) (huCBE11 0.2 mg/kg; Day 9): 0.067
Mean Tumor Volume (huCBE11 0.2 mg/kg; Day 9): 104.8 cubic mm
Mean Tumor Volume Decrease (huCBE11 0.2 mg/kg; Day 9): 7.0 cubic mm
Mean Fraction Affected (Fa) (huCBE11 0.2 mg/kg; Day 13): 0.071
Mean Fraction Affected/Fraction Unaffected (Fa/Fu) (huCBE11 0.2 mg/kg; Day 13): 0.076
Mean Tumor Volume (huCBE11 0.2 mg/kg; Day 13): 160.4 cubic mm
Mean Tumor Volume Decrease (huCBE11 0.2 mg/kg; Day 13): 12.2 cubic mm
Mean Fraction Affected (Fa) (huCBE11 0.2 mg/kg; Day 16): 0.055
Mean Fraction Affected/Fraction Unaffected (Fa/Fu) (huCBE11 0.2 mg/kg; Day 16): 0.058
Mean Tumor Volume (huCBE11 0.2 mg/kg; Day 16): 250.5 cubic mm
Mean Tumor Volume Decrease (huCBE11 0.2 mg/kg; Day 16): 14.5 cubic mm
Mean Fraction Affected (Fa) (huCBE11 0.2 mg/kg; Day 20): 0.073
Mean Fraction Affected/Fraction Unaffected (Fa/Fu) (huCBE11 0.2 mg/kg; Day 20): 0.078
Mean Tumor Volume (huCBE11 0.2 mg/kg; Day 20): 371.9 cubic mm
Mean Tumor Volume Decrease (huCBE11 0.2 mg/kg; Day 20): 29.1 cubic mm
Mean Fraction Affected (Fa) (huCBE11 0.2 mg/kg; Day 23): 0.016
Mean Fraction Affected/Fraction Unaffected (Fa/Fu) (huCBE11 0.2 mg/kg; Day 23): 0.016
Mean Tumor Volume (huCBE11 0.2 mg/kg; Day 23): 518.7 cubic mm
Mean Tumor Volume Decrease (huCBE11 0.2 mg/kg; Day 23): 8.5 cubic mm
Mean Fraction Affected/Fraction Unaffected (Fa/Fu) (huCBE11 0.2 mg/kg; Day 27): −0.008
Mean Tumor Volume (huCBE11 0.2 mg/kg; Day 27): 673.8 cubic mm
Mean Tumor Volume Decrease (huCBE11 0.2 mg/kg; Day 27): −5.2 cubic mm
Mean Fraction Affected (Fa) (huCBE11 0.2 mg/kg; Day 30): 0.030
Mean Fraction Affected/Fraction Unaffected (Fa/Fu) (huCBE11 0.2 mg/kg; Day 30): 0.030
Mean Tumor Volume (huCBE11 0.2 mg/kg; Day 30): 792.1 cubic mm
Mean Tumor Volume Decrease (huCBE11 0.2 mg/kg; Day 30): 24.1 cubic mm
Mean Fraction Affected (Fa) (huCBE11 0.2 mg/kg; Day 34): 0.118
Mean Fraction Affected/Fraction Unaffected (Fa/Fu) (huCBE11 0.2 mg/kg; Day 34): 0.134
Mean Tumor Volume (huCBE11 0.2 mg/kg; Day 34): 926.4 cubic mm
Mean Tumor Volume Decrease (huCBE11 0.2 mg/kg; Day 34): 123.9 cubic mm
Mean Fraction Affected (Fa) (huCBE11 0.2 mg/kg; Day 37): 0.132
Mean Fraction Affected/Fraction Unaffected (Fa/Fu) (huCBE11 0.2 mg/kg; Day 37): 0.152
Mean Tumor Volume (huCBE11 0.2 mg/kg; Day 37): 1048.5 cubic mm
Mean Tumor Volume Decrease (huCBE11 0.2 mg/kg; Day 37): 159.5 cubic mm
Mean Fraction Affected (Fa) (huCBE11 0.2 mg/kg; Day 41): 0.120
Mean Fraction Affected/Fraction Unaffected (Fa/Fu) (huCBE11 0.2 mg/kg; Day 41): 0.137
Mean Tumor Volume (huCBE11 0.2 mg/kg; Day 41): 1266.0 cubic mm
Mean Tumor Volume Decrease (huCBE11 0.2 mg/kg; Day 41): 173.4 cubic mm
Mean Fraction Affected (Fa) (huCBE11 0.2 mg/kg; Day 43): 0.096
Mean Fraction Affected/Fraction Unaffected (Fa/Fu) (huCBE11 0.2 mg/kg; Day 43): 0.107
Mean Tumor Volume (huCBE11 0.2 mg/kg; Day 43): 1452.0 cubic mm
Mean Tumor Volume Decrease (huCBE11 0.2 mg/kg; Day 43): 154.7 cubic mm
Mean Fraction Affected (Fa) (huCBE11 2 mg/kg alone, Day 9): 0.101
Mean Fraction Affected (Fa) (huCBE11 2 mg/kg alone, Day 13): 0.137
Mean Fraction Affected (Fa) (huCBE11 2 mg/kg alone, Day 16): 0.322
Mean Fraction Affected (Fa) (huCBE11 2 mg/kg alone, Day 20): 0.458
Mean Fraction Affected (Fa) (huCBE11 2 mg/kg alone, Day 23): 0.497
Mean Fraction Affected (Fa) (huCBE11 2 mg/kg alone, Day 27): 0.542
Mean Fraction Affected (Fa) (huCBE11 2 mg/kg alone, Day 30): 0.524
Mean Fraction Affected (Fa) (huCBE11 2 mg/kg alone, Day 34): 0.541
Mean Fraction Affected (Fa) (huCBE11 2 mg/kg alone, Day 37): 0.485
Mean Fraction Affected (Fa) (huCBE11 2 mg/kg alone, Day 41): 0.541
% T/C, lowest observed (huCBE11 2 mg/kg and 4 mg/kg; dose ranging study): > 42%
